Data on 24 compounds can be found in patent publication US6670365B1, “Substituted imidazo 1,2a}azines as selective inhibitors of cox-2” (Laboratorios S.A.L.V.A.T., S.A., priority 1998, dated 2003).

One assay has as its target T1, COX-1 (Homo sapiens, UniProt P23219).
T1 construct: Fresh blood was collected into sterile containers with no anticoagulants; endogenous in cells; host or cells: fresh whole blood without anticoagulants (platelet COX-1, TXB2 read-out)
Put plainly: Assay for in vitro COX-1 inhibition in fresh whole blood without anticoagulants (TXB2 by EIA). As to conditions: no anticoagulants, compound 0.1 to 100 μM, 37° C. for 1 hour, TXB2 levels in plasma by EIA. It is filed as cell-based. How it is done:
Assay for in vitro COX-1 Inhibition
Fresh blood was collected into sterile containers with no anticoagulants. Aliquots of 500 μL were immediately transferred to eppendorf tubes, preloaded with a test compound each, at final concentrations varying from 0.1 to 100 μM. The eppendorf tubes were vortexed and incubated at 37° C. for 1 hour. At the end of incubation, plasma was obtained by centrifugation and stored at −80° C. TXB2 levels in plasma were established using EIA (Cayman Chemical).

The next assay deals with T2, COX-2 (Homo sapiens, UniProt P35354).
T2 construct: endogenous in cells; host or cells: human whole blood from volunteers, stimulated with LPS
T2 sequence (P35354 18-604): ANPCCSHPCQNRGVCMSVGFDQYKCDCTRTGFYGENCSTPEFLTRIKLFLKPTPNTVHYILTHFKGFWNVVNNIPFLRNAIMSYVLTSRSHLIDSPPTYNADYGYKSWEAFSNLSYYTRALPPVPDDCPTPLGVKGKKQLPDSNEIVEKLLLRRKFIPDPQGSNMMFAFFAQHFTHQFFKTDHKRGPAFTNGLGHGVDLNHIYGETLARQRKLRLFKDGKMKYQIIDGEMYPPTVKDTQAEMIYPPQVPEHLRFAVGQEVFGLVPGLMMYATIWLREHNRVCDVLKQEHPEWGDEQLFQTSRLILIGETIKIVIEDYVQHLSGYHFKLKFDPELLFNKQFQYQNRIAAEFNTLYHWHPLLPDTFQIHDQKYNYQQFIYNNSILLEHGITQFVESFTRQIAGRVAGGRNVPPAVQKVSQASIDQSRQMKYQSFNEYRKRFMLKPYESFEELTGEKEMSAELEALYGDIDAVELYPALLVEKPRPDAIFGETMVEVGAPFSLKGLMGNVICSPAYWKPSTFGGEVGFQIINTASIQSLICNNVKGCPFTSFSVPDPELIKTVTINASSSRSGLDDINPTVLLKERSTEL
Nature of the assay: Assay for in vitro COX-2 inhibition in LPS-stimulated human whole blood (PGE2 by EIA). The format is cell-based. As to conditions: for IC50: human whole blood, compound 0.1 to 25 μM, 15 minutes at 37° C., LPS 100 μg/mL for 24 h, PGE2 levels in plasma by EIA; for selective COX-2 inhibitory activity (COX-2 in preference to COX-1): in vitro, statement in words referring to Table 1. How it is done: Assay for in vitro COX-2 Inhibition
Human whole blood from volunteers with no apparent inflammatory conditions and not having taken any NSAIDs for at least 15 days prior to blood collection was used to evaluate the COX-2 inhibitory effect of the synthesized compounds. […] At the end of the incubation, the blood was centrifuged at 10.000 rpm to obtain plasma, and the samples were stored at −80° C. PGE2 levels in plasma were established using EIA (Cayman Chemical).

T1 sequence (P23219 24-599): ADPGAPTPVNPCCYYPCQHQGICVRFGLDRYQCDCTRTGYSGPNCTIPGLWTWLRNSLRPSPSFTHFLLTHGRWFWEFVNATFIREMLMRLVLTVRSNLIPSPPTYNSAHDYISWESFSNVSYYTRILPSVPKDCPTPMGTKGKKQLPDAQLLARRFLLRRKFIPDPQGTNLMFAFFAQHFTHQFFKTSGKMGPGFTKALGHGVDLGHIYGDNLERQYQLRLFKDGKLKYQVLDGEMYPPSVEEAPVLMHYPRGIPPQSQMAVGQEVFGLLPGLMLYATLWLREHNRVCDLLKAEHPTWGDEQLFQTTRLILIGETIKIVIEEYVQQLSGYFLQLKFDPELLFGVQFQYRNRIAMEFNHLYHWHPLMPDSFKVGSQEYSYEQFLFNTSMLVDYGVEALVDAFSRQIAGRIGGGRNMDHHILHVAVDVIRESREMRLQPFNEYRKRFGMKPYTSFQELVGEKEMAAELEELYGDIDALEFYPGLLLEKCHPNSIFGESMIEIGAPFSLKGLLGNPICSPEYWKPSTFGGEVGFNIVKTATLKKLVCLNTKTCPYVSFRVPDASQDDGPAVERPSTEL

Turning to “2-(3-fluorophenyl)-3-(4-aminosulfonylphenyl)imidazo[1,2a][1,2,4]triazine [Product Ihh]”, half-maximal inhibition against COX-1 (IC50) required 100 µM.

Consider “2-(3-methylphenyl)-3-(4-aminosulfonylphenyl)imidazo[1,2a][1,2,4]triazine [Product Igg]”, for which the IC50 against COX-1 stood at 10 µM; on COX-2 it was 2.8 µM.

Turning to “2-(4-fluorophenyl)-3-(4-methylsulfonylphenyl)imidazo[1,2a][1,2,4]triazine [Product Ibb]”, the IC50 against COX-1 was 50 µM; on COX-2 it was 2.2 µM.

In the case of “2-phenyl-3-(4-aminosulfonylphenyl)imidazo[1,2a][1,2,4]triazine [Product Idd]”, the IC50 against COX-1 was more than 50 µM; on COX-2, 3.8 µM.

“2-phenyl-3-(4-methylsulfonylphenyl)imidazo[1,2a][1,2,4]triazine [Product Iaa]”: the IC50 against COX-1 came out at 76 µM; on COX-2, 3.1 µM.

In the case of `CS(=O)(=O)c1ccc(-c2c(-c3ccccc3)nc3ncccn23)cc1` [Product Ia, 2-phenyl-3-(4-methylsulfonylphenyl)imidazo [1,2a]pyrimidine], the IC50 is more than 50 µM at COX-1 and 5.5 µM at COX-2.

Compound `Cc1ccc(-c2nc3ncccn3c2-c2ccc(S(C)(=O)=O)cc2)cc1` [Product Ib, 2-(4-methylphenyl)-3-(4-methylsulfonylphenyl)imidazo[1,2a]pyrimidine] displayed an IC50 at COX-1 of more than 50 µM.

As to `CS(=O)(=O)c1ccc(-c2c(-c3ccc(F)cc3)nc3ncccn23)cc1` [Product Ic, 2-(4-fluorophenyl)-3-(4-methylsulfonylphenyl)imidazo[1,2a]pyrimidine], the IC50 on COX-1 was more than 50 µM; on COX-2, 2.9 µM. Besides, the “selective COX-2 inhibitory activity (COX-2 in preference to COX-1)” value (“selective COX-2 inhibitory activity” below) at COX-2 is “specially selective COX-2 inhibitory activity”.

For the compound `COc1ccc(-c2nc3ccccn3c2-c2ccc(S(C)(=O)=O)cc2)cc1` [Product Iccc, 2-(4-methoxyphenyl)-3-(4-methylsulfonylphenyl)imidazo[1,2a]pyridine], the figures for the IC50 on COX-1 and on COX-2 were 40 µM and 3.3 µM, respectively.

Consider `CS(=O)(=O)c1ccc(-c2c(-c3ccc(Cl)cc3)nc3ncccn23)cc1` [Product Id, 2-(4-chlorophenyl)-3-(4-methylsulfonylphenyl)imidazo[1,2a]pyrimidine], for which the IC50 is more than 50 µM on COX-1 and more than 10 µM against COX-2.

In the case of `CCOc1ccc(-c2nc3ccccn3c2-c2ccc(S(C)(=O)=O)cc2)cc1` [Product Iddd, 2-(4-ethoxyphenyl)-3-(4-methylsulfonylphenyl)imidazo[1,2a]pyridine], the IC50 at COX-1 turned out to be 80 µM; at COX-2, 3.5 µM.

`COc1ccc(-c2nc3ncccn3c2-c2ccc(S(C)(=O)=O)cc2)cc1` [Product If, 2-(4-methoxyphenyl)-3-(4-methylsulfonylphenyl)imidazo[1,2a]pyrimidine]: the IC50 was 25 µM against COX-1 and 1.4 µM on COX-2. Also, the “selective COX-2 inhibitory activity” value at COX-2 is on record as “specially selective COX-2 inhibitory activity”.

As for `COc1ccc(-c2nc3ccccn3c2-c2ccc(S(C)(=O)=O)cc2)cc1C` [Product Ifff, 2-(3-methyl-4-methoxyphenyl)-3-(4-methylsulfonylphenyl)imidazo[1,2a]pyridine], the IC50 worked out at 45 µM on COX-1 and 1 µM against COX-2.

For `CCOc1ccc(-c2nc3ncccn3c2-c2ccc(S(C)(=O)=O)cc2)cc1` [Product Ig, 2-(4-ethoxyphenyl)-3-(4-methylsulfonylphenyl)imidazo[1,2a]pyrimidine], on COX-2, it took 1 µM to reach half-maximal inhibition (IC50) and the “selective COX-2 inhibitory activity” value was “specially selective COX-2 inhibitory activity”.

Consider `Cc1ccc(-c2nc3ncccn3c2-c2ccc(S(C)(=O)=O)cc2)cc1C` [Product Ih, 2-(3,4-dimethylphenyl)-3-(4-methylsulfonylphenyl)imidazo[1,2a]pyrimidine], for which the IC50 on COX-1 was more than 50 µM; at COX-2, 2.8 µM.

With `COc1ccc(-c2nc3ccccn3c2-c2ccc(S(C)(=O)=O)cc2)cc1Cl` [Product Ihhh, 2-(3-chloro-4-methoxyphenyl)-3-(4-methylsulfonylphenyl)imidazo[1,2a]pyridine], the IC50 against COX-1 came to 82 µM; at COX-2 it was 6.8 µM.

Turning to `COc1ccc(-c2nc3ncccn3c2-c2ccc(S(C)(=O)=O)cc2)cc1C` [Product Ii, 2-(3-methyl-4-methoxyphenyl)-3-(4-methylsulfonylphenyl)imidazo[1,2a]pyrimidine], the IC50 is 30 µM at COX-1 and 2.2 µM against COX-2.

As for `COc1ccc(-c2nc3ncccn3c2-c2ccc(S(C)(=O)=O)cc2)cc1Cl` [Product Ik, 2-(3-chloro-4-methoxyphenyl)-3-(4-methylsulfonylphenyl)imidazo[1,2a]pyrimidine], the IC50 at COX-1 stood at 61 µM; against COX-2 it was 3.9 µM.

Regarding `Cc1ccn2c(-c3ccc(S(C)(=O)=O)cc3)c(-c3ccc(C)c(C)c3)nc2n1` [Product In, 7-methyl-2-(3,4-dimethylphenyl)-3-(4-methylsulfonylphenyl)imidazo[1,2a]pyrimidine], the figures for the IC50 against COX-1 and on COX-2 were 2 µM and 4.2 µM, respectively.

As for `Cc1ccccc1-c1nc2ccccn2c1-c1ccc(S(N)(=O)=O)cc1` [Product Innn, 2-(2-methylphenyl)-3-(4-aminosulfonylphenyl)imidazo[1,2a]pyridine], the IC50 on COX-1 is more than 100 µM; against COX-2, more than 5 µM.

`Cc1ccc(-c2nc3ncccn3c2-c2ccc(S(N)(=O)=O)cc2)cc1` [Product Io, 2-(4-methylphenyl)-3-(4-aminosulfonylphenyl)imidazo[1,2a]pyrimidine]: the IC50 on COX-1 was more than 50 µM; against COX-2 it was 4.5 µM.

As for `Cc1cccc(-c2nc3ccccn3c2-c2ccc(S(N)(=O)=O)cc2)c1` [Product Ippp, 2-(3-methylphenyl)-3-(4-aminosulfonylphenyl)imidazo[1,2a]pyridine], half-maximal inhibition at COX-2 (IC50) required 3.1 µM.

Turning to `NS(=O)(=O)c1ccc(-c2c(-c3cccc(F)c3)nc3ccccn23)cc1` [Product Iqqq, 2-(3-fluorophenyl)-3-(4-aminosulfonylphenyl)imidazo[1,2a]pyridine], the concentration for half-maximal inhibition (IC50) against COX-1 was more than 100 µM; against COX-2, more than 10 µM.

As for `COc1ccc(-c2nc3ccccn3c2-c2ccc(S(N)(=O)=O)cc2)cc1C` [Product Iuuu, 2-(3-methyl-4-methoxyphenyl)-3-(4-aminosulfonylphenyl)imidazo[1,2a]pyridine], the IC50 on COX-1 is 25 µM; on COX-2, 1.7 µM.

One may read the IC50 as the concentration that inhibits the measured activity by half. A low value points to greater potency in that assay.
